Our source for the IC50 values is patent US11505536B2, “Dihydroorotate dehydrogenase inhibitors” (Janssen Biotech, Inc., priority 2019, dated 2022).

For one test, the target named is human DHODH (Homo sapiens (Human), UniProt Q02127). Briefly: DHODH Enzymatic Assay. Type of test: biochemical. As to conditions: purified human DHODH, DCIP absorbance, end-point mode; read-out: hDHODH IC50. The procedure: The following assay is referred to herein as the “DHODH Enzymatic Assay.” To detect DHODH enzyme activities, dichloroindophenol (DCIP) is added as the final electron acceptor in the assay. DCIP can accept electrons from the reduced coenzyme Q generated in the assay, or from dihydroorotate (DHO) via FMN by binding presumably to the ubiquinone pocket. DCIP solutions are blue, with an intense absorbance around 600 nm, but becomes colorless upon reduction (J. Biol. Chem. (1986) 261, 11386). The assay buffer contained […], pH 7.5, 150 mM NaCl, 0.5 mM EDTA, and 0.1% Triton X-100 in MilliQ water. Substrate consisting of 20 mM DHO, 5 mM CoQ6, and 1 mM DCIP in assay buffer, initiates the reaction. The assay is run in end-point mode by quenching the reaction with the potent DHODH inhibitor brequinar. Absorbance measurements were obtained using the BMG Phera Star plate-reading spectrophotomer. Purified human DHODH was purchased from Proteros (cat. No. PR-0044). Chemicals were purchased from Sigma-Aldrich, Teknova, and Avanti Polar Lipids. Liquid handling was performed using Labcyte Echo and Formulatrix Tempest.
human DHODH, sequence (Q02127 whole entry): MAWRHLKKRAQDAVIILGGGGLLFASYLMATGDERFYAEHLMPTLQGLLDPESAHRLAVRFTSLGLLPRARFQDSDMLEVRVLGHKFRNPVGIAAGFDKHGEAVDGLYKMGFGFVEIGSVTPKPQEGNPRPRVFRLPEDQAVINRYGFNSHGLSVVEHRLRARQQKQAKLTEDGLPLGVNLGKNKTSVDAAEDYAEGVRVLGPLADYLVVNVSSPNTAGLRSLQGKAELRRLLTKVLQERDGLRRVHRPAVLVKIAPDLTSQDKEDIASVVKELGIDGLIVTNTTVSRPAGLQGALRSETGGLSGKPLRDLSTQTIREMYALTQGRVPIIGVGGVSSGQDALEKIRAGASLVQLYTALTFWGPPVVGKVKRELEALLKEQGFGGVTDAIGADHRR

In test [1] the test system is MOLM-13 cells (human acute myeloid leukemia cells). Briefly: MOLM-13 Cellular Assay. Type of test: cell-based. Conditions: 72 hours exposure, cell viability by CellTiter-Glo. The procedure:
The following assay is referred to herein as the “MOLM-13 Cellular Assay.” MOLM-13 cells (human acute myeloid leukemia cells) were obtained from DSMZ and were maintained in RPMI 1640+Glutamax+25 mM HEPES (Invitrogen, catalog number 72400) supplemented with 10% heat inactivated fetal bovine serum (FBS; Invitrogen, catalog number 16140). The day prior to assay set-up, cells were pelleted, resuspended in fresh media, counted, and cells were plated at 0.4×10^6 cell/mL in a T150 flask. On the day of the assay, cells were pelleted, resuspend in fresh media, counted and seeded at 5,000 cells/well in white opaque 96-well tissue culture treated microplates (Perkin Elmer, catalog number 6005680). Cells were exposed to different concentrations of test compounds at 37° C., 5% CO2 for 72 hours immediately after seeding. Cell viability was acquired on a Perkin Elmer Envision 2104 multilabel reader using the CellTiter-Glo assay (Promega) according to the manufacturer's instructions.

Bounds are passed on as bounds.

One may read the IC50 as the midpoint of a concentration-inhibition curve. Turning to `C=C(C)c1cn(-c2c(F)ccc(OC)c2Cl)c(=O)c2cc(F)c(-n3nc(CO)n(CC)c3=O)cc12` [Example 51, 2-(2-Chloro-6-fluoro-3-methoxyphenyl)-6-(4-ethyl-3-(hydroxymethyl)-5-oxo-4,5-dihydro-1H-1,2,4-triazol-1-yl)-7-fluoro-4-(prop-1-en-2-yl)isoquinolin-1(2H)-one], the IC50 on human DHODH is 0.267 nM; in test [1], 0.1 nM; in test [1] (Homo sapiens, MOLM-13, 72 h), no more than 0.2 nM.
Consider `CCn1c(CO)nn(-c2cc3c(C(C)C)cn(C45CCC(CC4)C5)c(=O)c3cc2F)c1=O` [Example 128, 2-(Bicyclo[2.2.1]heptan-1-yl)-6-(4-ethyl-3-(hydroxymethyl)-5-oxo-4,5-dihydro-1H-1,2,4-triazol-1-yl)-7-fluoro-4-isopropylisoquinolin-1(2H)-one], for which the IC50 stood at 19 nM on human DHODH and 7 nM in test [1] (Homo sapiens, MOLM-13, 72 h).
In the same order, the values of `C=C(C)c1cn(-c2cccc(OC)c2Cl)c(=O)c2cc(F)c(-n3nc(CO)n(CC)c3=O)cc12` [Example 70, 2-(2-Chloro-3-methoxyphenyl)-6-(4-ethyl-3-(hydroxymethyl)-5-oxo-4,5-dihydro-1H-1,2,4-triazol-1-yl)-7-fluoro-4-(prop-1-en-2-yl)isoquinolin-1(2H)-one] are 0.24 nM and 0.4 nM.
For `CCn1c(CO)nn(-c2cc3c(C(C)C)cn(-c4cc(C)ccc4C)c(=O)c3cc2F)c1=O` [Example 75, 2-(2,5-Dimethylphenyl)-6-(4-ethyl-3-(hydroxymethyl)-5-oxo-4,5-dihydro-1H-1,2,4-triazol-1-yl)-7-fluoro-4-isopropylisoquinolin-1(2H)-one] the same measures were 0.58 nM and 1 nM.
In the same order, the values of `CCn1c(CO)nn(-c2cc3c(C(C)C)cn([C@H]4CC[C@@H](OC)C4)c(=O)c3cc2F)c1=O` (racemic) [Example 119, Racemic 6-(4-Ethyl-3-(hydroxymethyl)-5-oxo-4,5-dihydro-1H-1,2,4-triazol-1-yl)-7-fluoro-4-isopropyl-2-((cis)-3-methoxycyclopentyl)isoquinolin-1(2H)-one] are 10.1 nM and 10 nM.
In the case of `CCn1c(CO)nn(-c2cc3c(C(C)C)cn(-c4cnccc4C)c(=O)c3cc2F)c1=O` [Example 136, 6-(4-Ethyl-3-(hydroxymethyl)-5-oxo-4,5-dihydro-1H-1,2,4-triazol-1-yl)-7-fluoro-4-isopropyl-2-(4-methylpyridin-3-yl)isoquinolin-1(2H)-one], the IC50 is 4.79 nM at human DHODH and 8 nM in test [1] (Homo sapiens, MOLM-13, 72 h).
For `CCn1c(CO)nn(-c2cc3c(C(C)C)cn(-c4c(C)ccnc4Cl)c(=O)c3cc2F)c1=O` [Example 23, 2-(2-Chloro-4-methylpyridin-3-yl)-6-(4-ethyl-3-(hydroxymethyl)-5-oxo-4,5-dihydro-1H-1,2,4-triazol-1-yl)-7-fluoro-4-isopropylisoquinolin-1(2H)-one] the same measures were 3.57 nM and 3 nM.
For `CCn1c(CO)nn(-c2cc3c(C(C)C)cn([C@@H]4CCC[C@@H]4C)c(=O)c3cc2F)c1=O` (stereo in doubt) [Example 125, 6-(4-Ethyl-3-(hydroxymethyl)-5-oxo-4,5-dihydro-1H-1,2,4-triazol-1-yl)-7-fluoro-4-isopropyl-2((1R*,2S*)-2-methylcyclopentyl)isoquinolin-1(2H)-one] the same measures were 15.5 nM and 6 nM.
In the same order, the values of `CCn1c(CO)nn(-c2cc3c(C(C)C)cn(-c4cccc(F)c4C)c(=O)c3cc2F)c1=O` [Example 74, 6-(4-Ethyl-3-(hydroxymethyl)-5-oxo-4,5-dihydro-1H-1,2,4-triazol-1-yl)-7-fluoro-2-(3-fluoro-2-methylphenyl)-4-isopropylisoquinolin-1(2H)-one] are 2.24 nM and 7 nM.
For the compound `CCn1c(CO)nn(-c2nc3c(C(C)C)cn(-c4ccccc4OC)c(=O)c3cc2F)c1=O` [Example 130, 2-(4-Ethyl-3-(hydroxymethyl)-5-oxo-4,5-dihydro-1H-1,2,4-triazol-1-yl)-3-fluoro-8-isopropyl-6-(2-methoxyphenyl)-1,6-naphthyridin-5(6H)-one], the IC50 on human DHODH turned out to be 0.885 nM; in test [1] (Homo sapiens, MOLM-13, 72 h), 0.9 nM.
In the same order, the values of `C=C(C)c1cn(-c2cccc(F)c2)c(=O)c2ccc(-n3nc(CO)n(CC)c3=O)cc12` [Example 1, 6-(4-Ethyl-3-(hydroxymethyl)-5-oxo-4,5-dihydro-1H-1,2,4-triazol-1-yl)-2-(3-fluorophenyl)-4-(prop-1-en-2-yl)isoquinolin-1(2H)-one] are 9.89 nM and 6 nM.
For `CCn1c(CO)nn(-c2cc3c(C(C)C)cn(-c4nccnc4C)c(=O)c3cc2F)c1=O` [Example 97, 6-(4-Ethyl-3-(hydroxymethyl)-5-oxo-4,5-dihydro-1H-1,2,4-triazol-1-yl)-7-fluoro-4-isopropyl-2-(3-methylpyrazin-2-yl)isoquinolin-1(2H)-one] the same measures were greater than 10000 nM and greater than 100 nM.
In the same order, the values of `C=C(C)c1cn(-c2cccc(OCCO)c2Cl)c(=O)c2cc(F)c(-n3nc(CO)n(CC)c3=O)cc12` [Example 65, 2-(2-Chloro-3-(2-hydroxyethoxy)phenyl)-6-(4-ethyl-3-(hydroxymethyl)-5-oxo-4,5-dihydro-1H-1,2,4-triazol-1-yl)-7-fluoro-4-(prop-1-en-2-yl)isoquinolin-1(2H)-one] are 1.65 nM and 20 nM.
On to `CCn1c(CO)nn(-c2cc3c(C(C)C)cn(-c4nc(OC)ccc4F)c(=O)c3cc2F)c1=O` [Example 96, 6-(4-Ethyl-3-(hydroxymethyl)-5-oxo-4,5-dihydro-1H-1,2,4-triazol-1-yl)-7-fluoro-2-(3-fluoro-6-methoxypyridin-2-yl)-4-isopropylisoquinolin-1(2H)-one], for which the 50% inhibitory concentration (IC50) is 6.14 nM on human DHODH and 9 nM in test [1] (Homo sapiens, MOLM-13, 72 h).
As to `CCc1nn(-c2cccc(F)c2)c(=O)c2ccc(-n3nc(CO)n(CC)c3=O)cc12` [Example 20, 4-Ethyl-6-(4-ethyl-3-(hydroxymethyl)-5-oxo-4,5-dihydro-1H-1,2,4-triazol-1-yl)-2-(3-fluorophenyl)phthalazin-1(2H)-one], the IC50 at human DHODH was 83.5 nM; in test [1] (Homo sapiens, MOLM-13, 72 h) it was 100 nM.
In the case of `CCn1c(CO)nn(-c2cc3c(C(C)C)nn(-c4ccccc4C)c(=O)c3cc2F)c1=O` [Example 53, 6-(4-Ethyl-3-(hydroxymethyl)-5-oxo-4,5-dihydro-1H-1,2,4-triazol-1-yl)-7-fluoro-4-isopropyl-2-(o-tolyl)phthalazin-1(2H)-one], the IC50 at human DHODH came to 0.778 nM; in test [1] (Homo sapiens, MOLM-13, 72 h) it was 0.7 nM.
For `CCC(COC)n1cc(C(C)C)c2cc(-n3nc(CO)n(CC)c3=O)c(F)cc2c1=O` (stereo not shown) [Example 116, 6-(4-Ethyl-3-(hydroxymethyl)-5-oxo-4,5-dihydro-1H-1,2,4-triazol-1-yl)-7-fluoro-4-isopropyl-2-(1-methoxybutan-2-yl)isoquinolin-1(2H)-one] the same measures were 30.7 nM and 20 nM.
For `CCn1c(CO)nn(-c2cc3c(C(C)C)cn(-c4cc(F)ccc4F)c(=O)c3cc2F)c1=O` [Example 68, 2-(2,5-Difluorophenyl)-6-(4-ethyl-3-(hydroxymethyl)-5-oxo-4,5-dihydro-1H-1,2,4-triazol-1-yl)-7-fluoro-4-isopropylisoquinolin-1(2H)-one] the same measures were 2.2 nM and 3 nM.
In the same order, the values of `CCn1c(CO)nn(-c2cc3c(C(C)C)cn(-c4ccnc(OC)c4C)c(=O)c3cc2F)c1=O` [Example 129, 6-(4-Ethyl-3-(hydroxymethyl)-5-oxo-4,5-dihydro-1H-1,2,4-triazol-1-yl)-7-fluoro-4-isopropyl-2-(2-methoxy-3-methylpyridin-4-yl)isoquinolin-1(2H)-one] are 29.2 nM and 50 nM.
On to `CCn1c(CO)nn(-c2ccc3c(=O)n(-c4c(F)cccc4Cl)cc(C(C)C)c3c2)c1=O` [Example 3, 2-(2-Chloro-6-fluorophenyl)-6-(4-ethyl-3-(hydroxymethyl)-5-oxo-4,5-dihydro-1H-1,2,4-triazol-1-yl)-4-isopropylisoquinolin-1(2H)-one], for which the IC50 at human DHODH was 3.46 nM; in test [1] (Homo sapiens, MOLM-13, 72 h), 2 nM.
For `C=C(C)c1cn(-c2c(C)n[nH]c2Cl)c(=O)c2cc(F)c(-n3nc(CO)n(CC)c3=O)cc12` [Example 60, 2-(5-Chloro-3-methyl-1H-pyrazol-4-yl)-6-(4-ethyl-3-(hydroxymethyl)-5-oxo-4,5-dihydro-1H-1,2,4-triazol-1-yl)-7-fluoro-4-(prop-1-en-2-yl)isoquinolin-1(2H)-one] the same measures were 0.286 nM and 4 nM.
